In BigSolDB 2.1:

CCCCN1CCCCC1C(=O)Nc1c(C)cccc1C.Cl (stereo unspecified)
solubility (mole fraction)
Details	293.15 K	298.15 K	303.15 K	308.15 K	313.15 K	318.15 K	323.15 K	328.15 K	333.15 K
in DMF	0.0036	0.0049	0.0062	0.0079	0.0096	0.0117	0.0128	0.0149	0.0172
in acetic acid	0.0322	0.0367	0.0399	0.0475	0.0601	0.0702	0.0879	0.109	0.13
in ethanol	0.0087	0.0099	0.0115	0.0139	0.0169	0.0207	0.0254	0.0312	0.0372
in isopropanol	0.002	0.0023	0.0028	0.0032	0.0037	0.0045	0.0051	0.006	0.0069
in methanol	0.0116	0.014	0.0167	0.0206	0.0249	0.0295	0.0346	0.0407	–
in n-butanol	0.0108	0.0121	0.0142	0.0164	0.0198	0.0236	0.0288	0.0355	0.0412
in n-propanol	0.0051	0.0058	0.0084	0.0101	0.0135	0.0172	0.0216	0.0281	0.0342
in water	0.0017	0.0019	0.0021	0.0022	0.0025	0.0028	0.0032	0.0036	0.0041
